From US5462929A, “Treatment of psoriasis by administration of 4-carbamoyl-1-β-D-ribofuranosylimidszolium-5-oleate” (Asahi Kasei Kogyo Kabushiki Kaisha, priority 1991, dated 1995)
Where two headings read alike, the source gives them in different places.

Tests used:
[1] = tested on: Normal human epidermal keratinocyte cells (NHEK); assay: Growth inhibition on cultured human epidermal keratinocyte cells, Coulter counter method; type: cell-based; conditions: mizoribine over 20 μg/ml, constant level; initial concentration 2.5×10^3 cells/ml
[2] = in vivo; cited from earlier work
[3] = tested on: Normal human epidermal keratinocyte cells (NHEK); assay: Microscopical observation of cultured keratinocyte cells; type: cell-based; conditions: 0.8 and 4 μg/ml, days 5, 7, 9; ×76.5
Procedure: (§1) Normal human epidermal keratinocyte cells
(§2) (NHEK: human penile prepuce originated secondary cultured cells)
(§3) (1) NHEK was subcultured according to the instruction described in the manual for Epi Pack, to obtain tertiary subcultured cells. Epi Pack medium on arrival was exchanged by fresh K-C,M to which added attached bovine pituitary gland extract (BPE), then NHEK was cultured at 37° C. and on the first day, tertiary cultivation was performed under the same conditions.
(§4) Cultured, day 5, day 7 and day 9: Photographs were taken on the central part of the two plates of 24-well culture plate, and calculated the number of cells.
Magnification of microscopic photographs is ×76.5 in each case.

[4] = tested on: Normal human epidermal keratinocyte cells (NHEK); assay: Growth inhibition on cultured human epidermal keratinocyte cells, dye uptake method
[5] = clinical trials; cited from earlier work
[6] = tested on: rejection of the transplantation of an organ such as kidney; conditions: cited from earlier work
[7] = tested on: mice; conditions: cited from earlier work
[8] = rat; cited from earlier work
[9] = tested on: psoriasis vulgaris; assay: Clinical trial on treatment of psoriasis (PASI, adverse effect, overall improvement, usefulness); type: in vivo, human; set-up: key to usefulness: 1: extremely useful; 2: useful; 3: slightly useful; 4: useless; 5: worse; key to overall improvement rate: 1: significantly improved; 2: improved; 3: slightly improved; 4: no change; 5: exacerbation; conditions: 300 mg/day oral
Excerpt: 2. Subject: Patients of psoriasis.
(1) Psoriasis vulgaris with median grade which satisfied within the following standard.
a) No consideration for the distinction of sex, inpatient and outpatient.
b) aged over 15 and below 70.
c) PASI [Psoriasis area and Severity Index; Darmtologica, 157; 238-244, 1978: Table 4] over 20 at initial stage of the test.
(2) Following patients are omitted.
b) patients who have suffered with severe bacterial, viral or mycotic infection.
c) person with complication or anamesis of malignant tumor.
d) person with cardiac disorder, renal disorder, blood disorder, gastrointestinal bleeding, peptic ulcer, and other serious complication, and anamesis.
e) a person in pregnancy or in a lactation, and who suspects being pregnant.
f) in addition, persons who are determined by the doctors-in-charge as unfit to participate.
2) Term for dosage: 6 weeks
3) Prohibited other concomitant drugs.
Concomitant use of the following preparation and others are prohibited.
a) Oral dosage of methotrexate, other immunosuppressant, etretinate and steroid preparations.
b) Ultraviolet treatment.
c) Other medicament which seem to be effective for psoriasis [Chinese indigenous medicine (Kampo-Yaku), anti-allergic drug, etc.]
2) Calculation method of PASI:
PASI=0.1 (Eh+Ih+Dh)×Ah+0.3 (Et+It+Dt)×At+0.2 (Eu+Iu+Du)×Au+0.4 (El+Il+Dl)×Al
During the period of administration of the drug, accompanied symptoms, which have newly appeared and were thought to be closely related to and can not be denied with the relation for the administered medicament, are checked and searched in details of the fact, the day appeared, the day disappeared, degree, treatment, result and relation with the test drug, and studied the presence of adverse effect.
On the treatment of administration of the drug after 6 weeks, the results were evaluated.
Considering the progress of PASI, following five degrees of evaluation were applied as compared with the condition before administration.
Considering the overall improvement and safety evaluation such as adverse effect, following five degrees of evaluation were applied.

[10] = tested on: Normal human epidermal keratinocyte cells (NHEK); assay: Growth inhibition on cultured human epidermal keratinocyte cells, Coulter counter method; type: cell-based; conditions: for Number of cells/cm^2: control 95.5
Procedure: as §1, §2, §3
On the day of starting initial cultivation:
NHEK, 2500 cells/cm^2 (5000 cell/well), was inoculated in six 24-well culture plates.
as §4
On the remaining other plates, the medium was exchanged and mizoribine was added. (amount added: the same as above)
Method of calculating number of cells
On the cultivation, day 5, day 7 and day 9, respectively, one plate of 24-well culture plate was applied for calculating number of cells by Coulter counter, and the other one plate was applied for dye uptake method.
(a) Measurement by Coulter counter
Each well: washed with 0.2 ml of HEPES buffer saline
add 0.2 ml of trypsin/EDTA solution,
allow to stand at room temperature for 10 minutes,
then tap the 24-well culture plate by solid face to remove
added 0.3 ml of trypsin neutralization solution and separated
the cells by pipetting.
calculation of cells by Coulter counter
(counted particles over 7 μm .phi.)

[11] = tested on: rats; conditions: cited from earlier work
[12] = cited from earlier work

## NC(=O)c1ncn([C@@H]2O[C@H](CO)[C@@H](O)[C@H]2O)c1O [Mizoribine, 4-carbamoyl-1-β-D-ribofuranosyl-imidazolium-5-olate]
[1]
  number of cells: approximately 4×10^3 cells/ml
[2]
  blood accumulation residue: lower blood accumulation residue
  nephrotoxicity: no nephrotoxicity
  transfer into brain: less transfer into brain
[3]
  morphology of cells: changed widely expanded shape
[4]; mizoribine addition
  growth inhibition rate, dye uptake method compared with Coulter counter method: slightly lower growth inhibition rate
[4]; where no difference in number of cells vs control by Coulter counter, lower level of concentration
  OD665 value: Significant increase in the value at OD665
[5]
  Blood level: approximately 1 μg/ml
[6]
  immunosuppressive activity / rejection of organ transplantation: suppresses the rejection of the transplantation of an organ such as kidney
[7]; female, i.m.
  LD50: > 2800 mg/kg
[7]; female, i.v.
  LD50: > 3042 mg/kg
[7]; female, p.o.
  LD50: > 4883 mg/kg
[7]; female, s.c.
  LD50: > 4883 mg/kg
[7]; male, i.m.
  LD50: > 2800 mg/kg
[7]; male, i.v.
  LD50: > 3042 mg/kg
[7]; male, p.o.
  LD50: > 4883 mg/kg
[7]; male, s.c.
  LD50: > 4883 mg/kg
[8]
  Dermal level compared with plasma level: almost equal in plasma level
[9]; after 6 weeks
  overall improvement rate: 2
[9]; after 6 weeks, overall improvement and safety
  usefulness: 2
[9]; individual patients No. 1-4, 6 weeks
  Adverse effect: None
[9]; patient No. 1, PASI pre 20, 6 weeks
  PASI post: 12
[9]; patient No. 2, PASI pre 41.4, 6 weeks
  PASI post: 20
[9]; patient No. 3, PASI pre 24.3, 6 weeks
  PASI post: 14
[9]; patient No. 4, PASI pre 21, 6 weeks
  PASI post: 12
[10]; 0.8 μg/ml, cultivation day 5, Coulter counter
  Number of cells/cm^2: 69.7 ×10^3 cells/cm^2
[10]; 4 μg/ml
  growth inhibition: significant growth inhibition was observed and cells were grown extremely slowly
[10]; 4 μg/ml, cultivation day 5, Coulter counter
  Number of cells/cm^2: 8.6 ×10^3 cells/cm^2
[10]; 8 μg/ml
  growth inhibition: significant growth inhibition was observed
[10]; 20 μg/ml, cultivation day 5, Coulter counter
  Number of cells/cm^2: 4.5 ×10^3 cells/cm^2
[10]; Homo sapiens, NHEK, 120 h, 0.8 μg/ml, cultivation day 5, Coulter counter, read-out: Inhibition rate
  inhibition at 0.8 µg/mL: 27%
[10]; Homo sapiens, NHEK, 120 h, 4 μg/ml, cultivation day 5, Coulter counter, read-out: Inhibition rate
  inhibition at 4 µg/mL: 91%
[10]; Homo sapiens, NHEK, 120 h, 20 μg/ml, cultivation day 5, Coulter counter, read-out: Inhibition rate
  inhibition at 20 µg/mL: 95%
[10]; blood level approximately 1 μg/ml
  inhibition of growth of human epidermal keratinocyte cells at concentration presumed to be reached in clinical use: effective for significant inhibition of growth of human epidermal keratinocyte cells
[11]; female, i.m.
  LD50: > 2800 mg/kg
[11]; female, i.v.
  LD50: > 2606 mg/kg
[11]; female, s.c.
  LD50: > 3975 mg/kg
[11]; male, i.m.
  LD50: > 2800 mg/kg
[11]; male, i.v.
  LD50: > 2572 mg/kg
[11]; male, p.o.
  LD50: > 3100 mg/kg
[11]; male, s.c.
  LD50: > 4161 mg/kg
[12]
  solubility in water: easily soluble in water
